According to patent publication US20240285557A1, “PHARMACEUTICAL COMPOSITION COMPRISING LIPASE INHIBITOR FOR TREATMENT OR TREATMENT OF RNA VIRAL INFECTIONS” (priority 2021, published 2024):
Values joined by “and” are separate entries in the source; they are usually repeats but may differ in a detail not shown here. Identical values can stand only once. Like-named read-outs stand apart in the source and are kept apart here.

Columns and labels:
SARS-CoV-2 (KCDC03) = assay: Half-maximal viral inhibitory concentration (IC50), immunofluorescence of virus-positive cells; details: for SI (CC50/IC50): SARS-CoV-2 (KCDC03); for IC50: Vero E6 cells, MOI 0.01 ffu/cell, drug added after 18 hours, additional 18 hours
[1] = tested on: Species A Rotavirus (NCDV); details: for SI (CC50/IC50): Species A Rotavirus (NCDV); for IC50: MA104 cells, MOI 0.01 ffu/cell, drug added after 12 hours, additional 12 hours
[2] = tested on: influenza A virus PR8 strain; assay: Proliferation of influenza A virus in MRC-5, NCI-H293, WI-38, and Calu-3 cells; type: cell-based; details: MRC-5, NCI-H293, WI-38, Calu-3 cells; 1, 10, 20 μM; vs solvent (vehicle)
[3] = tested on: Porcine sapovirus (Cowden); details: for SI (CC50/IC50): Porcine sapovirus (Cowden); for IC50: LLC-PK cells, MOI 0.01 ffu/cell, drug added after 18 hours, additional 18 hours
[4] = tested on: influenza A virus PR8 strain; assay: Influenza A virus-infected mice treated with lipase inhibitor; type: in vivo, C57BL/6J mice; details: for survival rate: 15 days observation; for free fatty acids and glycerol concentrations in lung tissues / progeny virus numbers in lung tissues / virus gene numbers in lung tissues: 5 mg/kg/day for 4 days, sixth day post-infection; for lung lesions, including interstitial pneumonia, and number of virus-positive cells / number of lipid droplets in bronchiolar epithelial cells / viral antigen in the bronchiolar epithelial cells: 5 mg/kg/day, vs untreated virus-inoculated group; for survival rate, weight loss, and clinical symptoms: 0.01 to 10 mg/kg/day, dose-dependent
Protocol: For use in verifying the antiviral effect of lipase inhibition in animals infected with influenza A virus, 150 mg/ml of atglistatin and 150 mg/ml of CAY10499 were dissolved in DMSO. To evaluate the antiviral effect depending on the concentration, the drugs were prepared at concentrations of 1.000, 0.500, 0.100, 0.010, and 0.001 mg/ml. […] The drugs were completely dissolved by vortexing.
For evaluating the antiviral efficacy of CAY10499, mouse groups were prepared in the same manner with the exception of using CAY10499 instead of atglistatin.
Influenza A virus inoculation was carried out on anesthetized mice via an intranasal route at 1,000 PFU per mouse, following the same procedure as above. In cases where the virus was not injected, only phosphate-buffered saline was administered. Observations were made for 15 days, during which survival rates, body weight, and clinical symptoms were monitored and recorded daily. […] Drug treatment began two days after the inoculation of influenza A virus.
The survival rate, which was 100% with a 0% mortality rate on day 0 of the infection, was measured daily over 15 days, and compared with the survival rate of the virus-injected and untreated group. Statistical significance was analyzed using the Log Rank Test, with a p value of 0.05 or […] considered significant.
Each group consisted of four seven-week-old female wild-type C57BL/6J mice, acclimatized for one week, and used in the experiment at eight weeks of age.
Mice were inoculated with influenza A virus PR8 strain in the same manner as described above, and drug treatment was conducted for 4 days, starting from the second day post-infection. On the sixth day post-infection, the mice were euthanized for autopsy.
These tissues were assayed for free fatty acid levels.
To evaluate lipid droplets and influenza A virus antigen in the lung tissues, the fixed tissues were prepared into 3-μm-thick frozen sections. […] After washing, the sections were mounted with Slow-Fade Gold antifade reagent for nucleus staining.
The sections were then finely cut at 3 μm thickness, deparaffinized in xylene, and rehydrated through graded alcohols and water. […] Histological examination was then performed using an optical microscope.
Immunohistochemistry was performed for influenza A virus antigens in the lung tissue.

[5] = tested on: Porcine respiratory reproductive syndrome virus (LMY); details: for SI (CC50/IC50): Porcine respiratory reproductive syndrome virus (LMY); for IC50: MARC-145 cells, MOI 0.01 ffu/cell, drug added after 18 hours, additional 18 hours
[6] = tested on: Bovine coronavirus (KWD20); details: for SI (CC50/IC50): Bovine coronavirus (KWD20); for IC50: HRT-18G cells, MOI 0.01 ffu/cell, drug added after 18 hours, additional 18 hours
[7] = tested on: Influenza A virus (H1N1) (PR8)
[8] = tested on: Porcine epidemic diarrhea coronavirus (QIAP1401); details: for IC50: Vero E6 cells, MOI 0.01 ffu/cell, drug added after 18 hours, additional 18 hours
[9] = tested on: SARS-COV-2 strain KCDC03, KDCA51463, or KDCA55905; assay: Proliferation of SARS-CoV-2 in various cultured cells; type: cell-based; details: Vero E6, Caco-2, Calu-3 cells (FIGS. 21a to 21f); vs solvent (vehicle)
[10] = tested on: SARS-COV-2, IAV, BCOV, PEDV, RVA, PRRSV, and PSaV; assay: Viral genome copy (real-time PCR) and progeny virus production in cells infected with seven RNA viruses; type: cell-based; details: 1, 10, and 20 μM; dose-dependent, all seven viruses
Description: Subsequently, each well was washed three times with phosphate-buffered saline, followed by the addition of the respective viral culture media.
Subsequently, each plate underwent three cycles of freezing and thawing to detach the cells from each well for subsequent experiments.
To analyze the inhibitory effects of atglistatin and CAY10499 on the genome copies of each virus, RNA was extracted using the RNeasy mini kit (Qiagen). The extracted RNA was then used to synthesize cDNA using the TOPscript™ cDNA Synthesis kit (Enzynomics), which includes random hexamer and poly(rA)-oligo(dT). Afterward, real-time PCR was performed on the synthesized cDNA in the TOPreal™ qPCR 2× PreMix (Enzynomics) solution in the presence of specific primers for SARS-COV-2 nucleocapsid (N), influenza A virus PB1, bovine coronavirus spike (S), porcine epidemic diarrhea coronavirus nucleocapsid (N), bovine species A rotavirus VP6, porcine reproductive and respiratory syndrome virus matrix (M), and porcine sapovirus VPg, using the LineGene 9600 Plus Real-time PCR detection system (Bioer, Hangzhou, China).
To analyze the inhibitory effects of atglistatin and CAY10499 on the production of progenies of the viruses, the supernatant obtained after three cycles of freezing and thawing was serially ten-fold diluted. […] After adsorption, each well was washed twice with phosphate-buffered saline (pH 7.4), followed by the addition of the respective culture media.
Then, after removal of the supernatants, the cells were fixed with 4% paraformaldehyde for 15 minutes and each well was washed thrice with phosphate-buffered saline and treated with 0.2% Triton X-100 at 20° C. for 10 minutes.
After three washes with phosphate-buffered saline, the wells were treated with 100- to 200-fold diluted primary antibodies to the spike protein of SARS-COV-2, the nucleoprotein protein of influenza A virus, the spike protein of bovine coronavirus, the nucleocapsid protein of porcine epidemic diarrhea coronavirus, the VP6 protein of bovine species A rotavirus, the matrix protein of porcine reproductive and respiratory syndrome virus, and the VPg protein of porcine sapovirus, respectively, and applied to a refrigerator at 4° C. for 12 hours.
Subsequently, the supernatant was removed, and each well was washed thrice with phosphate-buffered saline, followed by incubation with a 100- to 200-fold dilution of a secondary antibody conjugated with Alexa Fluor 488 or fluorescein isothiocyanate at room temperature for 2 hours.
Each virus was allowed to adsorb onto the cells which were then cultured in a freshly changed medium containing DABPU-EM or DABPU-DE. Thereafter, the cells were detached from the wells for subsequent experiments.

[11] = 5 mg kg^−1 day^−1 intraperitoneally for four days from day 2 post infection
[12] = 10 mg kg^−1 day^−1 intraperitoneally for four days from day 2 post infection, control 100% mortality
[13] = Porcine epidemic diarrhea coronavirus (QIAP1401)

Compound: CN(C)C(=O)Nc1cccc(-c2ccc(N(C)C)cc2)c1 [Atglistatin, 3-(4′-(dimethylamino)-(1,1′-biphenyl)-3-yl)-1,1-dimethylurea]
- SI (CC50/IC50) (SARS-CoV-2 (KCDC03)): 154
- IC50 (SARS-CoV-2 (KCDC03)): 1.47 µM
- SI (CC50/IC50) [1]: 32
- progeny virus number [2]: significantly reduced
- viral genome copy number [2]: significantly reduced
- SI (CC50/IC50) [3]: 72
- survival rate [4, 11]: 62.5%
- free fatty acids and glycerol concentrations in lung tissues [4]: significant decrease
- progeny virus numbers in lung tissues [4]: significant decrease
- virus gene numbers in lung tissues [4]: significant decrease
- lung lesions, including interstitial pneumonia, and number of virus-positive cells [4]: alleviation and reduction
- number of lipid droplets in bronchiolar epithelial cells [4]: did not decrease significantly
- viral antigen in the bronchiolar epithelial cells [4]: significant reduction
- survival rate [4, 12]: 60% and 62.5%
- survival rate, weight loss, and clinical symptoms [4]: improvement
- SI (CC50/IC50) [5]: 84
- SI (CC50/IC50) [6]: 152
- SI (CC50/IC50) ([7]; Influenza A virus (H1N1) (PR8)): 251
- SI (CC50/IC50) [8, 13]: 116
- number of viral genome copies [9]: significantly reduced
- copies of genomes of each virus [10]: reduced
- production of progenies of each virus [10]: reduced

Compound: COc1nn(-c2ccc(NC(=O)OCc3ccccc3)c(C)c2)c(=O)o1 [CAY10499]
- SI (CC50/IC50) (SARS-CoV-2 (KCDC03)): 62
- IC50 (SARS-CoV-2 (KCDC03)): 1.54 µM
- IC50 [1]: 20.9 µM
- SI (CC50/IC50) [1]: 4
- IC50 [3]: 11.8 µM
- SI (CC50/IC50) [3]: 8
- free fatty acids and glycerol concentrations in lung tissues [4]: significant decrease
- progeny virus numbers in lung tissues [4]: significant decrease
- virus gene numbers in lung tissues [4]: significant decrease
- lung lesions, including interstitial pneumonia, and number of virus-positive cells [4]: alleviation and reduction
- number of lipid droplets in bronchiolar epithelial cells [4]: did not decrease significantly
- viral antigen in the bronchiolar epithelial cells [4]: significant reduction
- survival rate [4, 12]: 50%
- survival rate, weight loss, and clinical symptoms [4]: improvement
- IC50 [5]: 4.21 µM
- SI (CC50/IC50) [5]: 21
- SI (CC50/IC50) [6]: 11
- IC50 [6]: 7.3 µM
- IC50 [7]: 4.13 µM
- SI (CC50/IC50) [7]: 27
- SI (CC50/IC50) [8]: 30
- IC50 [8]: 3.19 µM
- copies of genomes of each virus [10]: reduced
- production of progenies of each virus [10]: reduced

Compound: CCN(CC)C(=O)Nc1cccc(-c2ccc(N(C)C)cc2)c1 [DABPU-DE]
- SI (CC50/IC50) (SARS-CoV-2 (KCDC03)): 185
- IC50 (SARS-CoV-2 (KCDC03)): 1.2 µM
- IC50 [1]: 5.22 µM
- SI (CC50/IC50) [1]: 36
- progeny virus number [2]: significantly reduced
- viral genome copy number [2]: significantly reduced
- IC50 [3]: 2.77 µM
- SI (CC50/IC50) [3]: 81
- survival rate [4, 11]: 68.8%
- free fatty acids and glycerol concentrations in lung tissues [4]: significantly reduced
- progeny virus numbers in lung tissues [4]: significantly reduced
- virus gene numbers in lung tissues [4]: significantly reduced
- lung lesions, including interstitial pneumonia, and number of virus-positive cells [4]: alleviation and reduction
- number of lipid droplets in bronchiolar epithelial cells [4]: no significant decrease
- viral antigen in the bronchiolar epithelial cells [4]: significantly decreasing
- survival rate [4, 12]: 68.8%
- survival rate, weight loss, and clinical symptoms [4]: improvement
- IC50 [5]: 2.29 µM
- SI (CC50/IC50) [5]: 95
- SI (CC50/IC50) [6]: 158
- IC50 [6]: 1.12 µM
- SI (CC50/IC50) ([7]; Influenza A virus (H1N1) (PR8)): 207
- IC50 ([7]; […], drug added after 12 hours, additional 12 hours): 1.03 µM
- SI (CC50/IC50) [8, 13]: 128
- IC50 [8]: 1.62 µM
- number of viral genome copies [9]: significantly reduced
- copies of genomes of each virus [10]: reduced
- production of progenies of each virus [10]: reduced

Compound: CCN(C)C(=O)Nc1cccc(-c2ccc(N(C)C)cc2)c1 [DABPU-EM, 3-(4′-(dimethylamino)-(1,1′-biphenyl)-3-yl)-1-ethyl-1-methylurea]
- SI (CC50/IC50) (SARS-CoV-2 (KCDC03)): 122
- IC50 (SARS-CoV-2 (KCDC03)): 1.71 µM
- SI (CC50/IC50) [1]: 32
- progeny virus number [2]: significantly reduced
- viral genome copy number [2]: significantly reduced
- SI (CC50/IC50) [3]: 62
- free fatty acids and glycerol concentrations in lung tissues [4]: significantly reduced
- progeny virus numbers in lung tissues [4]: significantly reduced
- virus gene numbers in lung tissues [4]: significantly reduced
- lung lesions, including interstitial pneumonia, and number of virus-positive cells [4]: alleviation and reduction
- number of lipid droplets in bronchiolar epithelial cells [4]: no significant decrease
- viral antigen in the bronchiolar epithelial cells [4]: significantly decreasing
- survival rate [4, 12]: 50%
- survival rate, weight loss, and clinical symptoms [4]: improvement
- SI (CC50/IC50) [5]: 78
- SI (CC50/IC50) [6]: 54
- SI (CC50/IC50) ([7]; Influenza A virus (H1N1) (PR8)): 127
- SI (CC50/IC50) [8, 13]: 108
- number of viral genome copies [9]: significantly reduced
- copies of genomes of each virus [10]: reduced
- production of progenies of each virus [10]: reduced
